Measurements published in patent publication US5599806A, “Hydrazino and hydroxyamino-14-β-hydroxyandrostane derivatives active on the cardiovascular system processes for their preparation and pharmaceutical compositions containing same” (Sigma-Tau Industrie Farmaceutiche Riunite S.p.A., priority 1994, dated 1997).
Read-outs that look alike come from different tables or passages of the source.

Legend:
[1] = biological target: Na^+, K^+ -ATPase receptor; assay: displacement of the specific ^3 H-ouabain binding from the Na^+, K^+ -ATPase receptor; settings: ^3 H-ouabain displacement, purified Na^+
Source text: a) displacement of the specific ^3 H-ouabain binding from the Na^+, K^+ -ATPase receptor purified according to Jorghensen (Jorghensen P., BBA, 1974, 356, 36) and Erdmann (Erdmann E. et al., Arzneim. Forsh., 1984, 34, 1314);

[2] = biological target: T1, purified Na^+, K^+ -ATPase (Canis lupus familiaris, UniProt P50997); assay: inhibition of the activity of the purified Na^+, K^+ -ATPase (hydrolysis of ^32 P-ATP); assay type: biochemical
T1 construct: from tissue
Source text: To test the affinity for the receptor site of the Na^+, K^+ -ATPase and the inhibition of the activity of the enzyme, the following tests were used:
b) inhibition of the activity of the purified Na^+, K^+ -ATPase measured as % of hydrolysis of ^32 P-ATP in the presence and in the absence of the tested compound (Doucet A. et al., Am. J. Physiol., 1986, 251, F851)

[3] = hydrolysis of ^32 P-ATP, purified Na^+, K^+ -ATPase, read-out: Inhibitory Activity (-log IC50) (converted)

| SMILES | Binding ^3 H-Ouab. Displacement (-log IC50) [1] | IC50 [2] [µM] | IC50 [2, 3] [µM] |
| --- | --- | --- | --- |
| C[C@]12CC[C@H](O)C[C@H]1CC[C@@H]1[C@@H]2CC[C@]2(C)[C@@H](CNNC(=N)Nc3ccccc3)CC[C@]12O [Comp. I-af, 17β-[2-(N-Phenylamidino)]hydrazinomethyl-5β-androstane-3β,14β-diol] | 5.0 | 63.1 |  |
| CN(C)CCONC[C@@]1(O)CC[C@]2(O)[C@@H]3CC[C@@H]4C[C@@H](O)CC[C@]4(C)[C@H]3CC[C@]12C [Comp. I-ba, 17β-(2-Dimethylaminoethoxyamino)methyl-5β-androstane-3β,14β,17α-diol] | 5.2 | 100 |  |
| CN(C)CCONCC=C[C@H]1CC[C@]2(O)[C@@H]3CC[C@@H]4C[C@@H](O)CC[C@]4(C)[C@H]3CC[C@]12C [Comp. I-au, 17β-[3-(2-Dimethylaminoethoxyamino)-1-propenyl]-5β-androstane-3β,14β-diol] | 5.9 |  | 39.8 |
| CN1CCN=C1NNC[C@H]1CC[C@]2(O)[C@@H]3CC[C@@H]4C[C@@H](O)CC[C@]4(C)[C@H]3CC[C@]12C [Comp. I-ac, 17β-[2-(1-Methyl-2-imidazolin-2-yl)]hydrazinomethyl-5β-androstane-3β,14β-diol] | 6.0 | 10 |  |
| CN(C)CCONC[C@H]1CC[C@]2(O)[C@@H]3CC[C@@H]4C[C@@H](OCCN5CCCC5)CC[C@]4(C)[C@H]3CC[C@]12C [Comp. I-bd, 3β-[2-(1-Pyrrolidinyl)ethoxy]-17β-(2-dimethylaminoethoxyamino)methyl-5β-androstane-3β,14β-diol] | 6.2 | 31.6 |  |
| CN(C)CCNC(=N)NNC[C@H]1CC[C@]2(O)[C@@H]3CC[C@@H]4C[C@@H](O)CC[C@]4(C)[C@H]3CC[C@]12C [Comp. I-ae, 17β-{2-[N-(2-Dimethylaminoethyl)amidino]}hydrazinomethyl-5β-androstane-3β,14β-diol] | 5.4 | 31.6 |  |
| CC(NOCCN(C)C)[C@H]1CC[C@]2(O)[C@@H]3CC[C@@H]4C[C@@H](O)CC[C@]4(C)[C@H]3CC[C@]12C (stereo partly drawn) [Comp. I-ar, 20β-(2-Dimethylaminoethoxyamino)-5β-pregnane-3β,14β-diol] | 5.7 | 63.1 |  |
| CN(C)CCONC[C@H]1CC[C@]2(O)[C@@H]3CC[C@@H]4C[C@@H](OCCN)CC[C@]4(C)[C@H]3CC[C@]12C [Comp. I-bc, 3β-(2-Aminoethoxy)-17β-(2-dimethylaminoethoxyamino)methyl-5β-androstane-14β-ol] | 6.1 |  | 39.8 |
| CC(=C[C@H]1CC[C@]2(O)[C@@H]3CC[C@@H]4C[C@@H](O)CC[C@]4(C)[C@H]3CC[C@]12C)CNOCCN(C)C [Comp. I-av, 17β-[3-(2-Dimethylaminoethoxyamino)-2-methyl-1-propenyl]-5β-androstane-3β,14β-diol] | 5.7 | 63.1 |  |
| CN(C)CCCCONC[C@H]1CC[C@]2(O)[C@@H]3CC[C@@H]4C[C@@H](O)CC[C@]4(C)[C@H]3CC[C@]12C [Comp. I-ao, 17β-(4-Dimethylaminobutoxyamino)methyl-5β-androstane-3β,14β-diol] |  | 79.4 |  |
| CN(C)CCONCC[C@H]1CC[C@]2(O)[C@@H]3CC[C@@H]4C[C@@H](O)CC[C@]4(C)[C@H]3CC[C@]12C [Comp. I-ax, 17β-[2-(2-Dimethylaminoethoxyamino)ethyl]-5β-androstane-3β,14β-diol] | 5.7 |  | 39.8 |
| C[C@]12CC[C@H](O)C[C@H]1CC[C@@H]1[C@@H]2CC[C@]2(C)[C@@H](CNOCCCCN)CC[C@]12O [Comp. I-al, 17β-(4-Aminobutoxyamino)methyl-5β-androstane-3β,14β-diol] | 6.2 |  |  |
| CN(C)CCONCCC[C@H]1CC[C@]2(O)[C@@H]3CC[C@@H]4C[C@@H](O)CC[C@]4(C)[C@H]3CC[C@]12C [Comp. I-ay, 17β-[3-(2-Dimethylaminoethoxyamino)propyl]-5β-androstane-3β,14β-diol] | 5.8 |  | 39.8 |
| CN(C)CCON(C)C[C@H]1CC[C@]2(O)[C@@H]3CC[C@@H]4C[C@@H](O)CC[C@]4(C)[C@H]3CC[C@]12C [Comp. I-ap, 17β-[N-Methyl-N-(2-dimethylaminoethoxy)amino]methyl-5β-androstane-3β,14β-diol] | 5.0 |  | 100 |
| CONC[C@H]1CC[C@]2(O)[C@@H]3CC[C@@H]4C[C@@H](O)CC[C@]4(C)[C@H]3CC[C@]12C [Comp. I-ai, 17β-Methoxyaminomethyl-5β-androstane-3β,14β-diol] | 5.1 |  |  |
| C[C@]12CC[C@H](O)C[C@H]1CC[C@@H]1[C@@H]2CC[C@]2(C)[C@@H](C=CCNOCCN)CC[C@]12O [Comp. I-at, 17β-[3-(2-Aminoethoxyamino)-1-propenyl]-5β-androstane-3β,14β-diol] | 6.7 | 10 |  |
| C[C@]12CC[C@H](O)C[C@H]1CC[C@@H]1[C@@H]2CC[C@]2(C)[C@@H](CNNC3=NCCCN3)CC[C@]12O [Comp. I-ad, 17β-[2-(1,4,5,6-Tetrahydro-2-pyrimidinyl)]hydrazinomethyl-5β-androstane-3β,14β-diol] | 6.5 | 3.98 |  |
| C[C@]12CC[C@H](O)C[C@H]1CC[C@@H]1[C@@H]2CC[C@]2(C)[C@@H](CNO)CC[C@]12O [Comp. I-ah, 17β-Hydroxyaminomethyl-5β-androstane-3β,14β-diol] | 5.0 | 79.4 |  |
| C[C@]12CC[C@H](O)C[C@H]1CC[C@@H]1[C@@H]2CC[C@]2(C)[C@@H](CNOCCCN)CC[C@]12O [Comp. I-ak, 17β-(3-Aminopropoxyamino)methyl-5β-androstane-3β,14β-diol] | 6.9 | 2.51 |  |
| C[C@]12CC[C@H](O)C[C@H]1CC[C@@H]1[C@@H]2CC[C@]2(C)[C@@H](CNNC3=NCCN3)CC[C@]12O [Comp. I-ab, 17β-[2-(2-Imidazolin-2-yl)]hydrazinomethyl-5β-androstane-3β,14β-diol] | 6.6 |  | 3.16 |
| CN(C)CCONC[C@H]1CC[C@]2(O)[C@@H]3CC[C@@H]4C[C@@H](OCCCN5CCCC5)CC[C@]4(C)[C@H]3CC[C@]12C [Comp. I-be, 3β-(3-(1-Pyrrolidinyl)propoxy)-17β-(2-dimethylaminoethoxyamino)methyl-5β-androstane-3β,14β-diol] | 6.0 |  |  |
| C[C@]12CC[C@H](O)C[C@H]1CC[C@@H]1[C@@H]2CC[C@]2(C)[C@@H](C=CCNNC(=N)N)CC[C@]12O [Comp. I-as, 17β-{3-[2-(Amidino)]hydrazino-1-propenyl}-5β-androstane-3β,14β-diol] | 6.0 | 31.6 |  |
| C[C@]12CC[C@H](O)C[C@H]1CC[C@@H]1[C@@H]2CC[C@]2(C)[C@@H](CNNC(=N)N)CC[C@]12O [Comp. I-aa, 17β-[2-(Amidino)]hydrazinomethyl-5β-androstane-3β,14β-diol] | 6.9 |  |  |
| CC(NNC(=N)N)[C@H]1CC[C@]2(O)[C@@H]3CC[C@@H]4C[C@@H](O)CC[C@]4(C)[C@H]3CC[C@]12C (stereo partly drawn) [Comp. I-ag, 20-(2-Amidino)hydrazino-5β-pregnane-3β,14β-diol] | 6.5 | 6.31 |  |
| C[C@]12CC[C@H](O)C[C@H]1CC[C@@H]1[C@@H]2CC[C@]2(C)[C@@H](CNOCCNC(=N)N)CC[C@]12O [Comp. I-aq, 17β-(2-Guanidinoethoxyamino)methyl-5β-androstane-3β,14β-diol] | 6.0 |  | 39.8 |
| CN(C)CCCONC[C@H]1CC[C@]2(O)[C@@H]3CC[C@@H]4C[C@@H](O)CC[C@]4(C)[C@H]3CC[C@]12C [Comp. I-an, 17β-(3-Dimethylaminopropoxyamino)methyl-5β-androstane-3β,14β-diol] |  | 63.1 |  |
